Ends that are not written are not given here. * marks the point of attachment. FITC = O=C1OC2(c3ccc(O)cc3Oc3cc(O)ccc32)c2ccc(NC(=S)*)cc21; Acp = not defined here
Tests used:
[1] = test system: human iPS cells (cell line 201B2-082008KU); test: Evaluation of cell membrane permeability function in iPS cells, confocal laser scanning microscopy of fluorescently labeled peptide; assay type: cell-based; conditions: 1 μM peptide, 1 or 4 hours culture; for penetration of the cell membrane from outside the cell and transfer into the cytoplasm of iPS cells: human iPS cells on MEF feeder cells, methanol fixed; for foreign substance transfer efficiency toward stem cells such as iPS cells: human iPS cells
Excerpt: The target cells for transferring the foreign substance were changed from human neonate foreskin fibroblasts to human iPS cells (human induced pluripotent stem cells), and the cell membrane permeability capability of the two samples (constructs for transferring a foreign substance) obtained in Example 1 above was investigated. It should also be noted that the iPS cells (cell line 201B2-082008KU) and the mouse embryonic fibroblast feeder cells (cell line SNL 76/7, hereinafter “MEF”) used in this example were provided by the Yamanaka Research Laboratory of the Institute for Frontier Medical Sciences, Kyoto University (professor Shinya Yamanaka).
First the obtained MEF were inactivated by a mitomycin C treatment (3 hours) and then trypsinised in a 0.25% trypsin solution containing 1 mM EDTA. After the above treatment, the trypsin was deactivated with culture medium containing FBS, and the MEF were adjusted to a suitable cell density using D-MEM medium (Dulbecco's Modified Eagle Medium: Gibco) containing MEF culture medium (7% FBS: Gibco), 2 mM L-glutamine (Gibco), 50 units/mL penicillin, and 50 μg/mL streptomycin (Gibco), and the abovementioned MEF were seeded onto a culture container (in the form of a culture slide or plate) with a surface coating of 0.1% gelatin. In this case, the MEF were seeded so that the cell density would be approximately 1.25×10^5 cells/mL. Next, the abovementioned cell culture containers were incubated overnight at 37° C. in a 5% CO2 atmosphere.
Thereafter, the feeder cells were prepared by removing the MEF culture medium and rinsing with PBS.
Separately, CTK solution (0.25% trypsin solution containing 0.1 mg/mL collagenase IV (Gibco), 1 mM calcium chloride, and 20% KSR (KnockOut® Serum Replacement)) was added to the obtained iPS cell line, the MEF were peeled therefrom, and the cells were rinsed with PBS.
Next, 1 mL hESC culture medium (i.e., human ES cell medium, in this case, DMEM/F12 culture medium (Gibco) containing 20% KSR (Gibco), 2 mM L-glutamine (Gibco), 0.1% nonessential amino acids (Gibco), 0.1 mM 2-mercaptoethanol (Gibco), 50 units/mL penicillin, and 50 μg/mL streptomycin (Invitrogen, 4 ng/mL bFGF (basic fibroblast growth factor)) was added, the iPS cells were peeled off using a cell scraper, and the colony was broken apart by gentle pipetting.
A suspension of iPS cells obtained in this manner was seeded onto the feeder cells in the culture containers that had been prepared as described above. Then, the above-mentioned hESC medium was added, and the cell culture containers were incubated overnight at 37° C. in a 5% CO2 atmosphere.
After incubation overnight, the culture medium was removed from the culture containers, and the abovementioned hESC medium to which one of the 1 mM sample solutions prepared in abovementioned. Example 1 had been added to make a final sample concentration (pipetted concentration) of 1 μM was added to the culture containers. Then the samples were incubated at 37° C. for either 1 or 4 hours in a 5% CO2 atmosphere.
The cells after 1 hour of culture and cells after 4 hours of culture were each rinsed in PBS (phosphate buffered saline) and fixed with methanol (on ice for 10 min).
Next, the same treatment as in Example 2 was performed, and the localization within the iPS cells of the peptide that was bonded to the fluorescent dye (i.e., fluorescently labeled) was investigated using a confocal scanning laser microscope. Part of the results are presented herein as micrographs.

[2] = test system: Human neonate foreskin fibroblasts (ATCC Catalogue No. CRL-2097); test: Evaluation of cell membrane permeability function, confocal laser scanning microscopy of fluorescently labeled peptide; assay type: cell-based; conditions: 1 μM peptide, 1 or 4 hours culture; for penetration of the cell membrane from outside the cell and transfer into the cytoplasm: methanol fixed
Protocol: Human neonate foreskin fibroblasts (ATCC Catalogue No. CRL-2097) were used as the eukaryotic cells, and the cell membrane permeability capability of the samples (constructs for transferring a foreign substance) obtained in Example 1 above was investigated.
More specifically, the abovementioned fibroblasts were cultured in a liquid mixture of 90% Eagle MEM culture medium (containing 0.1% nonessential amino acids, 2 mM L-glutamine, 1 mM sodium pyruvate, and 1.5 g/L sodium hydrogen carbonate) and 10% serum (FBS) as the culture medium.
The cultured cells were trypsinized for 1 min at 37° C. with a 0.25% trypsin solution. After the abovementioned treatment, the trypsin was deactivated with FBS-containing medium, and a cell suspension (test sample for foreign substance transfer) was prepared by adjusting the cell concentration to approximately 5×10^4 cells/mL with the culture medium.
Next, 0.5 mL of the abovementioned cell suspension was placed in a designated cell culturing container (culture slide with a surface coating of 0.1% gelatin), and the cells were incubated overnight at 37° C. in a 5% CO2 atmosphere. After incubation the medium was replaced with fresh culture medium, and the 1 mM sample solutions of each of the samples prepared in abovementioned Example 1 were added to a cell culture container so that the final sample concentration (peptide concentration) would be 1 μM. In this case 0.5 μL of sample solution was added to the container. Then the samples were incubated at 37° C. for either 1 or 4 hours in a 5% CO2 atmosphere.
The cells after 1 hour of culture and the cells after 4 hours of culture were each rinsed in PBS and fixed with methanol (on ice for 10 min).
Next the methanol-fixed samples (cells) were mounted using Prolong® Gold Antifade Reagent (Invitrogen) that contains the nuclear stain DAPI (4′,6-diamidino-2-phenylindole). Then the localization within the cells of the peptide bonded to the fluorescent dye (i.e., fluorescently labeled peptide) in each test sample (i.e., the abovementioned mounted test samples after methanol fixation) was investigated using a confocal scanning laser microscope. Part of the results are presented herein as micrographs.

Row | Substance | penetration of the cell membrane from outside the cell and transfer into the cytoplasm of iPS cells [1] | penetration of the cell membrane from outside the cell and transfer into the cytoplasm [2] | foreign substance transfer efficiency toward somatic cells such as fibroblasts [2] | foreign substance transfer efficiency toward stem cells such as iPS cells [1]
1 | (FITC-Acp)-KKLKKRNK ({FITC-Acp}-KKLKKRNK; not fully specified (C-terminus); printed as (FITC-Acp)-KKLKKRNK; reading uncertain) [Sample No. 8] | almost no passage through the cell membrane | almost no passage through the cell membrane |  | 
2 | (FITC-Acp)-RSRKYTSWYVALKRTLKERCLQVVRSLVK ({FITC-Acp}-RSRKYTSWYVALKRTLKERCLQVVRSLVK; not fully specified (C-terminus); printed as (FITC-Acp)-RSRKYTSWYVALKRTLKERCLQVVRSLVK; reading uncertain) [Sample No. 14] | transferred into the cytoplasm of iPS cells | transferred into the cytoplasm | extremely high | 
3 | (FITC-Acp)-MARRRRHRGPRRPRPP ({FITC-Acp}-MARRRRHRGPRRPRPP; reading uncertain; also: printed as (FITC-Acp)-MARRRRHRGPRRPRPP) [Sample No. 3] |  | transferred into the cytoplasm |  | 
4 | (FAM)-MQRKPTIRRKNLRLRRK ({FAM}-MQRKPTIRRKNLRLRRK; not fully specified (C-terminus); printed as (FAM)-MQRKPTIRRKNLRLRRK) [Sample No. 6] | transferred into the cytoplasm of iPS cells | transferred into the cytoplasm | extremely high | extremely high
5 | (FAM)-MAKSIRSKHRRQMRMMKRE ({FAM}-MAKSIRSKHRRQMRMMKRE; not fully specified (C-terminus); printed as (FAM)-MAKSIRSKHRRQMRMMKRE) [Sample No. 2] |  | transferred into the cytoplasm |  | 
6 | (FITC-Acp)-GRCRRLANFGPRKRRRRRR ({FITC-Acp}-GRCRRLANFGPRKRRRRRR; not fully specified (C-terminus); printed as (FITC-Acp)-GRCRRLANFGPRKRRRRRR; reading uncertain) [Sample No. 4] | transferred into the cytoplasm of iPS cells | transferred into the cytoplasm | extremely high | extremely high
7 | (FITC-Acp)-IMRRRGL ({FITC-Acp}-IMRRRGL; not fully specified (C-terminus); printed as (FITC-Acp)-IMRRRGL; reading uncertain) [Sample No. 7] | almost no passage through the cell membrane | almost no passage through the cell membrane |  | 
8 | (FITC-Acp)-RRRKRNRDARRRRRKQ ({FITC-Acp}-RRRKRNRDARRRRRKQ; reading uncertain; also: printed as (FITC-Acp)-RRRKRNRDARRRRRKQ) [Sample No. 5] |  | transferred into the cytoplasm |  | 

— patent US20130323776A1, “CARRIER PEPTIDE FRAGMENT AND USE THEREOF” (Toagosei Co. Ltd., priority 2009, published 2013)
